Results from ChEMBL document CHEMBL1146640, “A new 2-carbamoyl pteridine that inhibits mycobacterial FtsZ” (2004).
≈ marks a conversion by molar mass, not a printed value.

How the values were obtained:
[1] = test system: Mycobacterium tuberculosis; assay: Compound was tested for inhibition of GTP hydrolysis at a concentration of 100 uM in Mycobacterium tuberculosis (Mtb); format: functional
[2] = molecular target: Tubulin alpha chain (Sus scrofa) (UniProt P02550); assay: Percentage inhibition against human tubulin polymerization; format: functional; conditions: concentration not given here
Chain of Tubulin alpha chain (Sus scrofa) (P02550 whole entry, looked up): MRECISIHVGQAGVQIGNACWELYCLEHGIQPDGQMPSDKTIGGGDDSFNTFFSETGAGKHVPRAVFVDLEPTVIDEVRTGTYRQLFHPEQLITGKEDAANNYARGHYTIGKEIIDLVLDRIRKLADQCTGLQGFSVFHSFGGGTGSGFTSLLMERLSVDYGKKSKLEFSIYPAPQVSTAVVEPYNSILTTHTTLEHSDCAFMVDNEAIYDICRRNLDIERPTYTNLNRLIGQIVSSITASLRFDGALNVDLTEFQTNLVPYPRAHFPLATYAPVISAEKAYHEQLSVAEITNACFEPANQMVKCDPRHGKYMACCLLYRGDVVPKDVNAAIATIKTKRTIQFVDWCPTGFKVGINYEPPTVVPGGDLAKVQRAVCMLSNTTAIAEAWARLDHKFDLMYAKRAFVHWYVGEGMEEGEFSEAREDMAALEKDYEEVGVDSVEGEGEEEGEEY

[3] = test system: Mycobacterium tuberculosis; assay: Inhibitory dose required against Mycobacterium tuberculosis FtsZ polymerization; format: functional; conditions: read-out: ID50 (the source's name)
[4] = test system: Mycobacterium tuberculosis; assay: In vitro minimum inhibitory concentration (MIC) towardsMtb H37Ra was determined using a colorimetric (Alamar blue) microdilution broth assay; format: functional
[5] = test system: Tubulin alpha chain (Homo sapiens); assay: Percentage inhibition against human tubulin polymerization

Compound | Hydrolysis [1] [%] | inhibition [2] [%] | IC50 [3] [µM] | MIC [4] [µg/mL] | inhibition [5]
CCOC(=O)Nc1nc(NC(C)CCCN(CC)CC)c2nc(-c3ccccc3)c(-c3ccccc3)nc2n1 (stereo not drawn) | 23 | 24 | 38.1 | 2 (≈ 3.79 µM) | –
CCOC(=O)Nc1cc(NC(C)CCCN(CC)CC)c2nc(-c3ccccc3)c(-c3ccccc3)nc2n1 (stereo not drawn) | 35 | – | 34.2 | > 0.25 | No inhibition
